Laboratory results from paper PMC3766871, “Separacenes A–D, Novel Polyene Polyols from the Marine Actinomycete, Streptomyces sp” (Marine Drugs, 2013).

Columns and labels:
isocitrate lyase (ICL) [1] = biological target: T1, isocitrate lyase (ICL) (Candida albicans, UniProt Q9P8Q7); assay: enzyme assay with purified ICL, glyoxylate phenylhydrazone formation at […] nm; assay type: biochemical
T1 construct: gene ICL1

isocitrate lyase (ICL) [2] = biological target: T1, isocitrate lyase (ICL); assay: positive control in enzyme assay with purified ICL, glyoxylate phenylhydrazone formation at […] nm; assay type: biochemical

T1 sequence (Q9P8Q7 whole entry): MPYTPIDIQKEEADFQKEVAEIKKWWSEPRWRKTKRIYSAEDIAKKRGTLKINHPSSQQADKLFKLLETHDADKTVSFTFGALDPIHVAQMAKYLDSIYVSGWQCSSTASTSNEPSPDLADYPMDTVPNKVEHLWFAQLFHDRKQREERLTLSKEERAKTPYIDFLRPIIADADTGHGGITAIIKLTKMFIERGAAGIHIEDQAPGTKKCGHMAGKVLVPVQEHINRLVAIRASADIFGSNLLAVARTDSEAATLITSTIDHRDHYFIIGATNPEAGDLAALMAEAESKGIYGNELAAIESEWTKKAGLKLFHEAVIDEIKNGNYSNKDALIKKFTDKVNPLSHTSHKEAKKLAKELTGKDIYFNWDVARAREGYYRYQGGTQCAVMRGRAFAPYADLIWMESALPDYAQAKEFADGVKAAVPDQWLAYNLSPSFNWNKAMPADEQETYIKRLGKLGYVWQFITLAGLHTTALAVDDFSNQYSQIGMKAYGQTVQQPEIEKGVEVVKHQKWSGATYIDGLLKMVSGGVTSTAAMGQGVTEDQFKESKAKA

Compound | IC50 (isocitrate lyase (ICL) [1]) | IC50 (isocitrate lyase (ICL) [2])
C=C[C@@H](O)[C@H](O)/C=C/C=C/C=C/C=C/[C@@H](O)[C@@H](C)O [compound 1, Separacene A] | 172 µM | –
O=C(O)CC[N+](=O)[O-] [3-Nitropropionic acid] | – | 11.3 µM
